Assay results reported in US9018259B2, “Treatment of cancer using benzoic acid derivatives” (New York University, priority 2004, dated 2015).

Experiments:
CDC25A = CDC25A protein expression in G361 melanoma cells treated with PABA; assay type: cell-based; settings: G361 human melanoma cells treated with PABA; data not shown
Source text: (§1) To determine whether tumor cells abnormally express and signal through the PXR/SXR receptor compared to their non-transformed counterparts, and thus, candidates for treatment with PXR/SXR agonists, immortalized, non-transformed cells and sub-confluent transformed, tumorigenic cells will be cultured in the presence or absence of various concentrations of a known PXR/SXR activator, e.g., benzoic acid derivatives, and a negative control, e.g., streptomycin, for a pre-determined time e.g., 5 days. Cell lyses will be achieved as described above. Following lyses, about 15 μg/lane of protein will be loaded and separated by 10% SDS-PAGE, followed by transfer to nitrocellulose membranes. Membranes will then incubated in the presence of e.g., monoclonal antibody 39048, specific for the PXR/SXR nuclear receptor, followed by washing and labeling with a peroxidase-labeled secondary antibody.
(§2) Similarly, to evaluate expression of cell cycle proteins that may be regulated by PXR/SXR activation in response to drug treatment, membranes as prepared above will be incubated with commercially available monoclonal antibodies such as PC410 (Chemicon, Temecula, Calif.), directed against β-integrin, as a positive control, monoclonal antibody 3303, specific for BRCA-2 (QED Biosciences, San Diego, Calif.), and with monoclonal antibody AB-3, directed against CDC25A (NeoMakers Inc). […]

PXR/SXR receptor = target: T1, PXR/SXR receptor (Homo sapiens, UniProt O75469); settings: Moore et al., Mol. Endocrinol. 2002; 16: 977-986; cited from earlier work
T1 sequence (O75469 1-434): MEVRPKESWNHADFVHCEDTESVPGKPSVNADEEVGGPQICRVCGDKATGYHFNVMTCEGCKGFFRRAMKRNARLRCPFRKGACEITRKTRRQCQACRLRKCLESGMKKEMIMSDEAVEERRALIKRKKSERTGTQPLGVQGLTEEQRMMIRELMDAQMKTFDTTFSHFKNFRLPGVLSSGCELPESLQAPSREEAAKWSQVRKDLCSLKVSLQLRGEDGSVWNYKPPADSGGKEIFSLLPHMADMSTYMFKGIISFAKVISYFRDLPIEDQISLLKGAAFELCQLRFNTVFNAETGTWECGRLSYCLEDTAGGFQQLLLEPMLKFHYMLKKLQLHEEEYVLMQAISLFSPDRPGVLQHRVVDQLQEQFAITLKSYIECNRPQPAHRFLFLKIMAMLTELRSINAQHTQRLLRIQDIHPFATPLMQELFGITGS

[1] = test system: tyrosinase (from mushrooms); assay: Purified tyrosinase activity, formation of DOPAchrome from L-DOPA; assay type: biochemical; settings: at 8.0 mM, up to 10 minutes; L-DOPA 8.0 mM, 800 U/ml tyrosinase; FIG. 2
Experimental: Activity of purified tyrosinase was measured by monitoring the formation of DOPAchrome. Briefly, a fixed concentration of L-DOPA (8.0 mM) was incubated with 800 U/ml tyrosinase (from mushrooms-Sigma, St. Louis, Mo.) in the absence or presence of increasing concentrations of PABA, compound 44 (C-44) and compound 45 (C-45) (see FIG. 1 for structures) for indicated time points (see FIG. 2 for concentrations and time points). At each time point, 100 μl of the reaction mixture was measured. Data points represent the mean optical density at 475 nm±SD from triplicate wells.

BRCA-2 = BRCA-2 protein expression in G361 melanoma cells treated with PABA; assay type: cell-based; settings: G361 human melanoma cells treated with PABA; data not shown
Source text: as §1, §2

B16F10 melanoma cells [2] = assay: In vivo tumor growth of B16F10 xenografts in nude mice; settings: B16F10 s.c. xenograft, daily intraperitoneal injection for 15 days, TAXOL 0.5 μM, C-45 100 μg, FIG. 4
Experimental: In addition, tumor growth in vivo of xenografts of B16F10 melanoma cells in nude mice was determined. Briefly, subconfluent cultures of B16F10 cells were harvested, washed, and resuspended in sterile PBS. Female nude mice were injected subcutaneously with 1×10^6 cells per mouse and tumors were allowed to grow for 3 days. After 3 days, mice were either untreated or treated daily for 15 days by intraperitoneal injection of TAXOL® (paclitaxel) (0.5 μM), C-45 (100 μg), or a combination of TAXOL® (paclitaxel) and C-45. Tumor growth was determined weekly by caliper measurements. After 15 days, the mice were sacrificed and tumor volume was determined by standard methods using the formula […], where V=volume, L=length, and W=width.

B16F10 melanoma cells [3] = assay: Tumor cell proliferation, WST-1 tetrazolium salt cleavage; assay type: cell-based; settings: 50 μg/ml test compound for 3 days, with or without 0.01 μM TAXOL for additional 48 hours; compared to untreated control; FIG. 3A
Experimental: (§3) Tumor cell proliferation was assessed by monitoring mitochondrial dehydrogenase activity as detected by tetrazolium salt cleavage using a commercially available kit (WST-1; Roche, Indianapolis, Ind.). Briefly, B16F10 melanoma cells, Lewis Lung carcinoma cells, and 4T1 breast carcinoma cells (1×10^6) were resuspended in PABA-free growth medium supplemented with 2.0% fetal bovine serum and 50 μg/ml of test compound (as shown in FIG. 1) Following incubation for 3 days, the cells were either treated or not treated with 0.01 μM TAXOL® (paclitaxel) and incubated for an additional 48 hours. Proliferation was measured; data points represent the mean optical density at 490 nm±SD from triplicate wells.

[4] = test system: Lewis Lung carcinoma cells; assay: as above; assay type: cell-based; settings: 50 μg/ml test compound for 3 days, with or without 0.01 μM TAXOL for additional 48 hours; compared to untreated control; FIG. 3B
Experimental: as §3

[5] = test system: 4T1 breast carcinoma cells; assay: as above; assay type: cell-based; settings: 50 μg/ml test compound for 3 days, with or without 0.01 μM TAXOL for additional 48 hours; compared to untreated control; FIG. 3C
Experimental: as §3

B16F10 melanoma cells [6] = assay: Chick embryo tumor growth model; assay type: in vivo, chick embryos; settings: B16F10 cells cultured with 50 μg/ml C-45 at least 7 days before implantation; for growth of B16F10 tumors in chick embryos, with or without TAXOL: TAXOL 0.01 μM, FIG. 5B
Experimental: The chick embryo tumor growth model was used to determine whether C-45 enhances the ability of TAXOL® (paclitaxel) or ionizing radiation to inhibit tumor growth. Briefly, B16F10 melanoma cells were cultured in growth medium in the presence or absence of 50 μg/ml C-45 for at least 7 days. Following harvesting and washing, about 2×10^5 tumor cells were implanted onto the chorioallontoic membranes of 10 day-old chick embryos and incubated for at least 24 hours. Following incubation, the embryos were treated with either a single fractionated dose of radiation (5.0 Gy) or TAXOL® (paclitaxel) (0.01 μM) and incubated for an additional 7 days. The embryos were sacrificed and tumors were resected and weighed (5-10 embryos per condition).

Structure (SMILES) | expression of cell-cycle progression checkpoint protein CDC25A (CDC25A) | binding and activation of the PXR/SXR receptor (PXR/SXR receptor) | inhibition of tyrosinase activity (DOPAchrome formation, optical density at 475 nm) [1] | protein expression of DNA repair protein BRCA-2 (BRCA-2) | in vivo tumor growth (tumor volume) compared to untreated controls (B16F10 melanoma cells [2]) | in vitro proliferation of B16F10 cells (optical density at 490 nm) (B16F10 melanoma cells [3]) | in vitro proliferation of Lewis Lung carcinoma cells (optical density at 490 nm) [4] | in vitro proliferation of 4T1 breast carcinoma cells (optical density at 490 nm) [5] | growth of B16F10 tumors in chick embryos, with or without TAXOL (B16F10 melanoma cells [6]) | tumor weight / tumor growth in chick embryos, with or without radiation (B16F10 melanoma cells [6]; single dose of radiation 5.0 Gy, FIG. 5A)
Nc1ccc(C(=O)O)cc1 [PABA, para-amino-benzoic acid] | increase expression of cell-cycle progression checkpoint protein CDC25A | bind and activate the PXR/SXR receptor | inhibited tyrosinase activity | decreased protein expression of DNA repair protein BRCA-2 | – | – | – | – | – | –
CC(=O)O[C@H]1C(=O)[C@@]2(C)[C@H]([C@H](OC(=O)c3ccccc3)[C@]3(O)C[C@H](OC(=O)[C@H](O)[C@@H](NC(=O)c4ccccc4)c4ccccc4)C(C)=C1C3(C)C)[C@]1(OC(C)=O)CO[C@@H]1C[C@@H]2O [TAXOL® (paclitaxel), paclitaxel] | – | – | – | – | neither TAXOL® (paclitaxel) nor C-45 inhibited in vivo tumor growth | inhibited in vitro proliferation | inhibited in vitro proliferation | inhibited in vitro proliferation | inhibited the growth of the B16F10 tumors significantly | –
C=CCNc1ccc(C(=O)O)cc1 [C-45] | – | – | inhibited tyrosinase activity | – | neither TAXOL® (paclitaxel) nor C-45 inhibited in vivo tumor growth | inhibited in vitro proliferation | inhibited in vitro proliferation | inhibited in vitro proliferation | inhibited the growth of the B16F10 tumors significantly | reduced tumor weight significantly
